We go through 4 compounds from ChEMBL document CHEMBL4190350, “Synthesis, antimicrobial, antiquorum-sensing, antitumor and cytotoxic activities of new series of cyclopenta(hepta)[b]thiophene and fused cyclohepta[b]thiophene analogs” (Eur J Med Chem, 2017).

As usually defined, the IC50 is the concentration at which inhibition is half-maximal. A word on the ILS: it is the gain in survival time of treated over control animals, in per cent. One may read the MIC as the lowest concentration that inhibits growth of the organism. Higher therefore signals a less susceptible organism.

In brackets after ≈: the same amount, converted by molar mass. Activity calls are given as the source filed them. The calls are words filed in the database; no cut-off is given here. A value given as a limit tells only on which side of the number the result lay.

Data set [1] relates to Escherichia coli. As to the kind of experiment: Antimicrobial activity against Escherichia coli incubated for 24 hrs by disc diffusion assay. In kind it is functional. (In general: A growth-free zone around the sample is the usual read-out of agar diffusion tests.)
Data set [2] deals with Bacillus cereus. As to the kind of experiment: Antimicrobial activity against Bacillus cereus incubated for 24 hrs by disc diffusion assay. In kind it is functional.
The test system of data set [3] is Staphylococcus aureus. As to the kind of experiment: Antimicrobial activity against Staphylococcus aureus incubated for 24 hrs by disc diffusion assay. In kind it is functional.
Data set [4] relates to Candida albicans. As to the kind of experiment: Antimicrobial activity against Candida albicans incubated for 48 hrs by disc diffusion assay. In kind it is functional.
For data set [5], the system named is Aspergillus fumigatus. As to the kind of experiment: Antimicrobial activity against Aspergillus fumigatus incubated for 48 hrs by disc diffusion assay. The format is functional.
Data set [6] deals with Chromobacterium violaceum. As to the kind of experiment: Inhibition of quorum sensing system in Chromobacterium violaceum ATCC 12472 assessed as inhibition of violacein production at 5 mg/mL incubated for 48 hrs.
The test system of another data set is HepG2. As to the kind of experiment: Antitumor activity against human HepG2 cells assessed as inhibition of cell viability incubated for 48 hrs by MTT assay. The format is functional, cell-based. To be noted: HepG2, 48 h. A general note: Tetrazolium assays rely on reduction of a dye to a coloured formazan, in cell work by metabolically active cells.
For another data set, the system named is MCF7. As to the kind of experiment: Antitumor activity against human MCF7 cells assessed as inhibition of cell viability incubated for 48 hrs by MTT assay. In kind it is functional, cell-based. As to conditions: MCF7, 48 h.
In the next data set the test system is HT-29. As to the kind of experiment: Antitumor activity against human HT-29 cells assessed as inhibition of cell viability incubated for 48 hrs by MTT assay. In kind it is functional, cell-based. As to conditions: HT-29, 48 h.
The test system of data set [7] is Ehrlich. As to the kind of experiment: Antitumor activity against mouse EAC cells implanted in Swiss albino mouse assessed as mean survival time at 0.5 mg for 9 days (reference value: 14.5 day). The format is functional.
Data set [8] concerns Ehrlich. As to the kind of experiment: Antitumor activity against mouse EAC cells implanted in Swiss albino mouse assessed as increase in life span at 0.5 mg for 9 days relative to untreated control. The format is functional.
In data set [9] the test system is Ehrlich. As to the kind of experiment: Antitumor activity against mouse EAC cells implanted in Swiss albino mouse assessed as tumor volume at 0.5 mg for 9 days (reference value: 9.85 ml). In kind it is functional.
Data set [10] has as its system Ehrlich. As to the kind of experiment: Antitumor activity against mouse EAC cells implanted in Swiss albino mouse assessed as reduction in tumor cell count at 0.5 mg for 9 days (reference value: 9.85 ml). In kind it is functional, cell-based.
In data set [11] the test system is Mus musculus. As to the kind of experiment: Toxicity in mouse EAC cells implanted Swiss albino mouse assessed as hemoglobin level at 0.5 mg for 9 days (reference value: 8.15 g/dl). In kind it is organism-based. As to conditions: in vivo, 216 h.
The subject of data set [12] is Mus musculus. As to the kind of experiment: Toxicity in mouse EAC cells implanted Swiss albino mouse assessed as RBC count at 0.5 mg for 9 days (reference value: 3.69 10^6/mm3). The format is organism-based. To be noted: in vivo, 216 h.
The subject of data set [13] is Mus musculus. As to the kind of experiment: Toxicity in mouse EAC cells implanted Swiss albino mouse assessed as WBC count at 0.5 mg for 9 days (reference value: 23.96 10^3/mm3). The format is organism-based. To be noted: in vivo, 216 h.
The next data set deals with WI-38. As to the kind of experiment: Cytotoxicity in human WI38 cells assessed as inhibition of cell viability incubated for 48 hrs by MTT assay. In kind it is cell-based. To be noted: WI-38, 48 h.
A short description of data set [14]: Binding affinity to DNA (unknown origin) assessed as reduction in absorption maxima for methyl green/DNA complex incubated for 24 hrs by methyl green/DNA displacement assay.
The subject of data set [15] is Aspergillus fumigatus. As to the kind of experiment: Antimicrobial activity against Aspergillus fumigatus incubated for 48 hrs by serial dilution method. In kind it is functional.
Data set [16] concerns Escherichia coli. As to the kind of experiment: Antimicrobial activity against Escherichia coli incubated for 24 hrs by serial dilution method. The format is functional.
The test system of data set [17] is Bacillus cereus. As to the kind of experiment: Antimicrobial activity against Bacillus cereus incubated for 24 hrs by serial dilution method. In kind it is functional.
In data set [18] the test system is Staphylococcus aureus. As to the kind of experiment: Antimicrobial activity against Staphylococcus aureus incubated for 24 hrs by serial dilution method. In kind it is functional.
For data set [19], the system named is Candida albicans. As to the kind of experiment: Antimicrobial activity against Candida albicans incubated for 48 hrs by serial dilution method. The format is functional.

As to `CC1=NN=C(C)C1=NNc1sc2c(c1C(=O)NN)CCCCC2`, the “diameter of the inhibition zone (DIZ)” value in the data set on Escherichia coli [1], in the data set on Bacillus cereus [2], in the data set on Staphylococcus aureus [3], in the data set with Candida albicans [4] and in the data set on Aspergillus fumigatus [5] was less than 2 mm in each case. Also, in data set [6], the INH is 5 mm. Besides, the IC50 with HepG2 worked out at 6.9 µM; with MCF7 it was 4.1 µM; in the data set with HT-29, 5.7 µM; in the data set with WI-38, 33.2 µM; in [14] it was 27.8 µM. For the same compound, the MST in the data set with Ehrlich [7] was found to be 47.5 days. Besides, the increase in life span (ILS) in the data set on Ehrlich [8] worked out at 227.55%. The Activity with Ehrlich [9] was found to be 1.85 mL; in the data set with Mus musculus [11], 13.23 g/dL; in the data set with Mus musculus [12] it was 5.57 ×10⁶ /mm3; in the data set with Mus musculus [13] it was 6.9 ×10³ /mm3. Also, in the data set with Ehrlich [10], the outcome was Active.
On to `CCOC(=O)/C(=N/Nc1sc2c(c1C(=O)OCC)CCC2)C(C)=O`, for which the “diameter of the inhibition zone (DIZ)” value with Escherichia coli [1] is reported as 4 mm; in the data set with Bacillus cereus [2], 7 mm; in the data set on Staphylococcus aureus [3] it was less than 2 mm; in the data set on Candida albicans [4], 5 mm; in the data set with Aspergillus fumigatus [5] it was 16 mm. Besides, the INH in [6] was found to be 6 mm. The same compound displayed an MIC in the data set on Aspergillus fumigatus [15] of 887 µM (≈ 312 µg/mL). The IC50 came out at 16.1 µM with HepG2; 9.7 µM in the data set with MCF7; 8.8 µM with HT-29; 25.3 µM in the data set with WI-38; 65.7 µM in data set [14]. Besides, the MST in the data set with Ehrlich [7] is 44.3 days. Moreover, the increase in life span (ILS) in the data set on Ehrlich [8] worked out at 205.52%. Also, the Activity with Ehrlich [9] was found to be 2.32 mL; with Mus musculus [11] it was 13.1 g/dL; with Mus musculus [12], 5.49 ×10⁶ /mm3; in the data set on Mus musculus [13] it was 7.56 ×10³ /mm3. Also, the result in the data set on Ehrlich [10] was Active.
`CCOC(=O)c1c(NN=C(C(C)=O)C(C)=O)sc2c1CCC2`: the “diameter of the inhibition zone (DIZ)” value is given as 21 mm with Escherichia coli [1]; 26 mm in the data set on Bacillus cereus [2]; 22 mm with Staphylococcus aureus [3]; 23 mm in the data set on Candida albicans [4]; 26 mm in the data set on Aspergillus fumigatus [5]. Further, in data set [6], the INH came out at 11 mm. Besides, the minimum inhibitory concentration (MIC) in the data set on Escherichia coli [16], in the data set with Bacillus cereus [17], against Staphylococcus aureus [18], in the data set with Candida albicans [19] and with Aspergillus fumigatus [15] was 485 µM (≈ 156 µg/mL) in each case. For the same compound, the IC50 in the data set with HepG2 came to 13.8 µM; in the data set on MCF7, 7.6 µM; in the data set with HT-29, 18.7 µM; in the data set with WI-38, 33.5 µM; in [14] it was 42.2 µM. Besides, the MST in the data set with Ehrlich [7] turned out to be 39.5 days. In addition, the increase in lifespan (ILS) in the data set with Ehrlich [8] is recorded as 172.35%. Moreover, the Activity worked out at 3.13 mL in the data set on Ehrlich [9], 12.23 g/dL in the data set on Mus musculus [11], 4.95 ×10⁶ /mm3 in the data set with Mus musculus [12] and 8.76 ×10³ /mm3 in the data set on Mus musculus [13].
As for `CCOC(=O)/C(=N/Nc1sc2c(c1C(=O)OCC)CCCCC2)C(C)=O`, the “diameter of the inhibition zone (DIZ)” value in the data set on Escherichia coli [1] is 22 mm; with Bacillus cereus [2], 24 mm; in the data set on Staphylococcus aureus [3], 32 mm; in the data set on Candida albicans [4], less than 2 mm; in the data set with Aspergillus fumigatus [5], less than 2 mm. Moreover, the INH in data set [6] is less than 2 mm. The MIC was found to be 205 µM (≈ 78.1 µg/mL) against Escherichia coli [16], 411 µM (≈ 156 µg/mL) against Bacillus cereus [17] and 205 µM (≈ 78.1 µg/mL) in the data set with Staphylococcus aureus [18]. Further, the concentration for half-maximal inhibition (IC50) in the data set with HepG2 is 9.1 µM; in the data set with MCF7, 5.8 µM; with HT-29, 4.5 µM; with WI-38, 44.8 µM; in [14], 40.6 µM. Further, the MST with Ehrlich [7] came to 45 days. In addition, in the data set with Ehrlich [8], the increase in life span (ILS) is on record as 210.34%. Moreover, the Activity in the data set on Ehrlich [9] was determined as 1.97 mL; with Mus musculus [11] it was 13.15 g/dL; with Mus musculus [12], 5.51 ×10⁶ /mm3; with Mus musculus [13] it was 7.11 ×10³ /mm3. For the same compound, the outcome with Ehrlich [10] was Active.
